In US6297230A, “Cyanoaziridines for treating cancer” (priority 2000, dated 2001):
In brackets after ≈: the same amount, converted by molar mass. Where two headings read alike, the source gives them in different places.

How the values were obtained:
[1] = test system: MCF-7 breast cancer cells (sens.); experiment: In vitro antitumor activity, MCF-7 breast (sensitive); assay type: cell-based; settings: Homo sapiens, MCF7
Source text: (§1) 1) in vitro tumor cell viability assays using MTT and SRB dye reaction endpoints.
(§2) Sulforhodamine B (SRB) Assay for Adherent Tumor Cells
(§3) Sulforhodamine B (SRB) is a protein binding aminoxanthene dye with two sulfonic acid groups. (Lillie, R. D., H. J. Conn's Biological Stains, 9th Ed., Baltimore; Williams & Wilkins, 1977.) It quantitates whole cell protein content by the intensity of dye staining and relates this to the number of viable cells. […] The SRB assay is used for cells which normally adhere to surfaces (in this case plastic culture flasks or petri dishes) as part of their requirement for growth and division in vitro. The SRB assay is currently used by the National Cancer Institute in the anticancer drug screening program. (Skehan, et al., J Natl Cancer Inst 82:1107-1112, 1990; Rubinstein, et al., J Natl Cancer Inst 82:1113-1118, 1990.) Methodologic comparisons have shown that SRB results are linear for the number of tumor cells over a 100-fold range, and for protein content determined by a modified Lowry method or Standard Bradford (Bradford, M., Anal Biochem 72:248-254, 1976) methods. […] (Lillie, R. D., H. J. Conn's Biological Stains, 9th Ed., Baltimore; Williams & Wilkins, 1977.)
(§4) Cell cultures of 10^3 -10^7 cells growing in 96-well plastic microtiter plates are fixed with 50% trichloroacetic acid (TCA) for 30 minutes at 4° C. The cells are then stained with 0.4% (w/v) sulforhodamine B (SRB) dissolved in 1% acetic acid. Unbound dye is removed by 4 washes with 1% acetic acid, and protein-bound dye is extracted with 10 mM unbuffered Tris® base [tris(hydroxymethyl)aminomethane]. The optical density (OD) of this extracted solution is measured at […] in a microtiter plate ultraviolet absorbance detector. Cell viability is expressed as percent of control by dividing the optical densities and multiplying the result by 100.
(§5) Microculture Tetrazolium (MTT) Assay for Tumor Cells
(§6) Tumors are disaggregated into single cell suspensions using mechanical, hypoosmotic, and/or enzymatic (trypsin) methods. The cells are plated at a concentration of 3-5×10^4 per […] well into plastic 96-well plates. Growth medium containing 5-10% (vol/vol) heat-inactivated fetal bovine serum and penicillin/streptomycin (both […]) are added prior to incubation at 37° C. for 6 days. Afterwards the medium containing the drug is removed, the cells are centrifuged in fresh medium or phosphate-buffered saline (pH 7.4). A tetrazolium dye, […]-2,5-diphenyl tetrazolium (MTT), is then added. (Mossman, T., J Immunol 65:55-63, 1983.) This dye forms a colored formazan product upon activation by mitochondrial reductases in viable cells. Typically, the formazan product is solubilized in acid-propanol or DMSO. The intensity of the color is proportional to viable cell numbers and this is quantitated by spectrophotometric absorbance at 570 nm on a micro ELISA plate reader. The results are calibrated in % control absorbance from untreated tumor cells. (Alley, et al., Cancer Res 48:589-601, 1988.)
(§7) Table 3 gives the potencies of the new aziridine-1-carboxamides in a panel of human and murine tumor cells in culture. The tumor cell lines in this table are selected to represent a range of histological and growth phenotypes. Their characteristics are described below.
1.1 MCF-7 Breast Cancer: The parental (sensitive) MCF-7 breast cancer is an estrogen-dependent adenocarcinoma originally derived from a pleural effusion in a person with advanced metastatic breast cancer. (Soule, et al., J Natl Cancer Inst 51:1409-1416, 1973.)

MCF-7/D40 cells = experiment: In vitro antitumor activity, MCF-7/D40; assay type: cell-based; settings: Homo sapiens, MCF7; MCF-7 breast, D40 (40-fold doxorubicin resistant)
Source text: as §1, §2, §3, §4, §5, §6, §7
(§8) 1.3 MCF-7/D40 and MCF-7/MITOX cell lines were developed by chronic exposure in vitro to increasing concentrations of the DNA-intercalating antitumor agents doxorubicin and mitoxantrone, respectively. […] The MCF-7/D40 cells express the cell membrane efflux pump, P-glycoprotein and are over 40-fold resistant to doxorubicin, mitoxantrone and the vinca alkaloids, vinblastine and vincristine.

MCF-7/MITOX cells = experiment: In vitro antitumor activity, MCF-7/MITOX; assay type: cell-based; settings: Homo sapiens, MCF7/Mitox; MCF-7 breast, mitoxantrone resistant
Source text: as §1, §2, §3, §4, §5, §6, §7, §8

[2] = test system: L-1210 leukemia cells (sensitive); experiment: MTT growth inhibition, sensitive L-1210 leukemia cells; assay type: cell-based, mouse; settings: Sensitive L-1210, drug continuously present 8 days
Procedure: as §6, with “1988.) […]” for “1988.)”
Murine L-1210 Leukemia Cells were first described by Law, et al. from a female DBA/2 mouse exposed to topical methylcholanthrene. (Law, et al., J Natl Cancer Inst 10:179-192, 1949.) The cells represent a lymphocytic lineage and are highly tumorigenic in syngeneic DBA/2 mice, producing lethality typically 10-14 days after inoculation. This cell line has been used extensively to characterize the antitumor activity of chemotherapeutic agents. (Goldin, et al., Cancer Res (Cancer Chemotherapy Screening Data IX) 21:27-92, 1961.) The L-1210 cells have a model 40-41 chromosomes and a very high plating efficiency in suspension cultures in vitro.
(§9) *Drug continuously present for 8 days; IC50 measured by MTT dye

[3] = test system: L-1210 MDR leukemia cells; experiment: MTT growth inhibition, multidrug-resistant L-1210 leukemia cells; assay type: cell-based, mouse; settings: for Fold Resistance of IC50 's (MDR/S): L-1210 MDR vs sensitive, 11520 min; for IC50: MDR L-1210, drug continuously present 8 days
Procedure: as §6
In addition, the imexon analogs have also been tested in a multidrug-resistant (MDR) mouse L-1210 leukemia cell line.
L-1210 MDR Cells represent a multidrug-resistant cell line developed for resistance to the alkylating agent mitomycin C. (Dorr, et al., Biochem Pharmacol 36(19):3115-3120, 1987.) This cell line has the same general growth characteristics of the parental line, but is cross-resistant to numerous natural-product based anticancer agents. This includes anthracyclines such as doxorubicin (Adriamycin®) and vinca alkaloids such as vincristine or vinblastine.
as §9

[4] = Mus musculus, L1210, 192 h, read-out: IC50

SMILES	IC50 [1] [µg/mL]	IC50 (MCF-7/D40 cells) [µg/mL]	IC50 (MCF-7/MITOX cells) [µg/mL]	IC50 [2, 4] [µg/mL]	Fold Resistance of IC50 's (MDR/S) [3]	IC50 [3, 4] [µg/mL]	IC50 [2] [µg/mL]	IC50 [3] [µg/mL]
CNC(=O)N1CC1C#N (centres unmarked) [AMP 403, 2-Cyanoaziridine-1-(N-methyl)carboxamide]	3.3 (≈ 26.4 µM)	2.1 (≈ 16.8 µM)	2.3 (≈ 18.4 µM)	1.1 (≈ 8.79 µM)	2.5	2.7 (≈ 21.6 µM)	–	–
N#CC1CN1C(=O)Nc1ccccc1 (centres unmarked) [AMP 404, 2-Cyanoaziridine-1-(N-phenyl)carboxamide]	0.5 (≈ 2.67 µM)	0.5 (≈ 2.67 µM)	0.8 (≈ 4.27 µM)	0.2 (≈ 1.07 µM)	10.5	2.1 (≈ 11.2 µM)	–	–
CCNC(=O)N1CC1C#N (centres unmarked) [AMP 406, 2-Cyanoaziridine-1-(N-ethyl)carboxamide]	4 (≈ 28.7 µM)	2.8 (≈ 20.1 µM)	1.4 (≈ 10.1 µM)	2 (≈ 14.4 µM)	1.0	2 (≈ 14.4 µM)	–	–
N#CC1CN1C(=O)Nc1ccc(Cl)cc1Cl (centres unmarked) [AMP 407, 2-Cyanoaziridine-1-[N-(2,4-dichlorophenyl)]carboxamide]	–	–	–	52.3 (≈ 204 µM)	0.16	8.4 (≈ 32.8 µM)	–	–
CC(C)(C)NC(=O)N1CC1C#N (centres unmarked) [AMP 410, 2-Cyanoaziridine-1-(N-t-butyl)carboxamide]	> 10	31.8 (≈ 190 µM)	20.1 (≈ 120 µM)	22 (≈ 132 µM)	1.4	30.7 (≈ 184 µM)	–	–
N#CC1CN1C(=O)NCc1ccccc1 (centres unmarked) [AMP 412, 2-Cyanoaziridine-1-(N-benzyl)carboxamide]	1.5 (≈ 7.45 µM)	1.2 (≈ 5.96 µM)	0.7 (≈ 3.48 µM)	0.8 (≈ 3.98 µM)	2.6	2.1 (≈ 10.4 µM)	–	–
N#CC1CN1C(=O)NC1CCCCC1 (centres unmarked) [AMP 413, 2-Cyanoaziridine-1-(N-cyclohexyl)carboxamide]	2.5 (≈ 12.9 µM)	1.7 (≈ 8.8 µM)	1.9 (≈ 9.83 µM)	1.4 (≈ 7.24 µM)	2.2	3.1 (≈ 16 µM)	–	–
CCCCNC(=O)N1CC1C#N (centres unmarked) [AMP 414, 2-Cyanoaziridine-1-(N-butyl)carboxamide]	–	–	–	2 (≈ 12 µM)	1.0	2 (≈ 12 µM)	–	–
N#CC1CN1C(=O)Nc1ccc(F)cc1 (centres unmarked) [AMP 415, 2-Cyanoaziridine-1-[N-(4-fluorophenyl)]carboxamide]	0.4 (≈ 1.95 µM)	0.5 (≈ 2.44 µM)	0.6 (≈ 2.92 µM)	1.5 (≈ 7.31 µM)	0.8	1.2 (≈ 5.85 µM)	–	–
N#CC1CN1C(=O)Nc1ccc(C(F)(F)F)cc1 (centres unmarked) [AMP 416, 2-Cyanoaziridine-1-[N-(4-trifluorophenyl)]carboxamide]	0.4 (≈ 1.57 µM)	0.4 (≈ 1.57 µM)	0.3 (≈ 1.18 µM)	2 (≈ 7.84 µM)	0.9	1.8 (≈ 7.05 µM)	–	–
N#CC1CN1C(=O)Nc1ccc([N+](=O)[O-])cc1 (centres unmarked) [AMP 417, 2-Cyanoaziridine-1-[N-(4-nitrophenyl)]carboxamide]	–	–	–	0.6 (≈ 2.58 µM)	1.0	0.6 (≈ 2.58 µM)	–	–
CCOC(=O)c1ccc(NC(=O)N2CC2C#N)cc1 (centres unmarked) [AMP 419, 2-Cyanoaziridine-1-[N-(4-ethoxycarbonylphenyl)]carboxamide]	–	–	–	2.5 (≈ 9.64 µM)	1.2	3 (≈ 11.6 µM)	–	–
CCOC(=O)CNC(=O)N1CC1C#N (centres unmarked) [AMP 420, 2-Cyanoaziridine-1-[N-(ethoxycarbonyl)methyl]carboxamide]	–	–	–	2.5 (≈ 12.7 µM)	1.0	2.5 (≈ 12.7 µM)	–	–
N#CC1CN1C(=O)Nc1cccnc1 (centres unmarked) [AMP 421, 2-Cyanoaziridine-1-[N-(3-pyridyl)]carboxamide]	–	–	–	2.3 (≈ 12.2 µM)	0.9	2.1 (≈ 11.2 µM)	–	–
N#CC1CN1C(=O)Nc1ccc(S(N)(=O)=O)cc1 (centres unmarked) [AMP 422, 2-Cyanoaziridine-1-[N-(4-sulfamylphenyl)]carboxamide]	–	–	–	> 10	–	> 10	–	–
N#CC1CN1C(=O)Nc1cccc2ccccc12 (centres unmarked) [AMP 423, 2-Cyanoaziridine-1-[N-(1-naphthyl)]carboxamide]	–	–	–	1.7 (≈ 7.17 µM)	0.4	0.64 (≈ 2.7 µM)	–	–
CC(=O)Oc1ccccc1NC(=O)N1CC1C#N (centres unmarked) [AMP 424, 2-Cyanoaziridine-1-[N-(2-acetoxyphenyl)]carboxamide]	–	–	–	–	1.0	–	> 10	> 10
CC(=O)c1cccc(NC(=O)N2CC2C#N)c1 (centres unmarked) [AMP 425, 2-Cyanoaziridine-1-[N-(3-acetylphenyl)]carboxamide]	–	–	–	2.2 (≈ 9.6 µM)	0.8	1.8 (≈ 7.85 µM)	–	–
